Some results are limits rather than exact numbers.

Experiment [1] concerns the target T1, Cannabinoid Receptor 1 (CB1R), human recombinant CB1 (Homo sapiens, UniProt P21554).
T1 construct: purchased Perkin-Elmer; host or cells: HEK293
The experiment is described as follows: CB1R radioligand experiment on membranes from HEK293 cells over-expressing human recombinant CB1. The class given is binding. The conditions noted are these: human recombinant CB1, radioligand [3H]CP-55,490, n=3. The protocol: (§1) Visnadin was evaluated for its ability to activate Cannabinoid Receptor 1 (CB1R) and Cannabinoid Receptor 2 (CB2R).
CB1R experiments were performed using membranes from HEK293 cells over-expressing human recombinant CB1, as described by the manufacturer (Perkin-Elmer) and using [3H]CP-55,490 as the radioligand.
(§2) Data of active compounds are expressed in Ki (mM) and are means±SEM of n=3 determinations.
(§3) The values that are stated for each of the compounds is an EC50 value. This is defined as the molar concentration of an agonist, which produces 50% of the maximum possible response for that agonist. The values documented are in micromolar units.

The target in experiment [2] is T2, Cannabinoid Receptor 2 (CB2R), human recombinant CB2 (Homo sapiens, UniProt P34972).
T2 construct: purchased Perkin-Elmer; host or cells: HEK293
Kind of experiment: CB2R radioligand experiment on membranes from HEK293 cells over-expressing human recombinant CB2. The class given is binding. Particulars: human recombinant CB2, radioligand [3H]CP-55,495, n=3. As for the experimental part: as §1
CB2R experiments were performed using membranes from HEK293 cells over-expressing human recombinant CB2, as described by the manufacturer (Perkin-Elmer), and using [3H]CP-55,495 as the radioligand.
as §2, §3

T1 sequence (P21554 whole entry): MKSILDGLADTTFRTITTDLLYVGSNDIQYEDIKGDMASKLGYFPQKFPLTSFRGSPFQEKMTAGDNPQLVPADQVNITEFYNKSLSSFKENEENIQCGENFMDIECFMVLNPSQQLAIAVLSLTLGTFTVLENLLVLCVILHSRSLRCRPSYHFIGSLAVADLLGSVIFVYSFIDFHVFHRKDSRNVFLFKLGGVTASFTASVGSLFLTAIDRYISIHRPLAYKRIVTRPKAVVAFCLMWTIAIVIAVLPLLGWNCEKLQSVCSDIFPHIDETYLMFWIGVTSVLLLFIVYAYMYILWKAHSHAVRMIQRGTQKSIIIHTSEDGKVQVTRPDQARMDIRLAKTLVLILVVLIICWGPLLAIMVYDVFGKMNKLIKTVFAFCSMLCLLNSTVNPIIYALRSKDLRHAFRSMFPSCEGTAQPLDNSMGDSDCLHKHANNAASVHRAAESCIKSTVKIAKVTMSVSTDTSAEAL
T2 sequence (P34972 whole entry): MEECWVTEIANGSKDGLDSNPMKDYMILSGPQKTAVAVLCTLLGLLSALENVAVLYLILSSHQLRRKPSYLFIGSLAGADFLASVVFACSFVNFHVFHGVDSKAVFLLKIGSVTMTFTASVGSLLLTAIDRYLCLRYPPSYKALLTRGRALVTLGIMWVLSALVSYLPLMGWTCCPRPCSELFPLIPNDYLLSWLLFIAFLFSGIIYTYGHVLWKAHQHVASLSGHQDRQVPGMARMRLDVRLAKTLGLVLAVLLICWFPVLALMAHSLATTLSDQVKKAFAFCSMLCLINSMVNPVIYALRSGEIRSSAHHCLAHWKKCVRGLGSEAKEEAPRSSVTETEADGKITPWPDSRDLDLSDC

On to `CCC(C)C(=O)O[C@@H]1[C@H](OC(C)=O)c2c(ccc3ccc(=O)oc23)OC1(C)C` (some centres unmarked) [visnadin], for which the values for the EC50 in experiment [1] and in experiment [2] were more than 25 µM and 14.1 µM, respectively.

Broadly, the EC50 is the concentration giving half of the maximal effect.

The values are drawn from patent US20080167284A1, “Hair And/Or Scalp Care Compositions Incorporating Visnadin” (priority 2005, published 2008).
